Assay results as given in patent US9050334B2, “MIF inhibitors and their uses” (INNOV88 LLC, priority 2010, dated 2015).

Key:
[1] = system: rhMIF-stimulated PBMCs; assay: TNF-α production in rhMIF-stimulated PBMCs; format: cell-based; conditions: PBMC; human PBMCs, 25 μM compound preincubated 1 hour, rhMIF stimulation, 24 hours
Protocol: Effect of Candidate Compounds on Cytokine Production from Human Cells: Mono-Mac-6 Cells: The cellular efficacy of the inhibitors is determined using the human monocytic cell line, Mono-Mac-6 cells (MM6 cells) as it has been shown that MIF induces the production of inflammatory mediators, including tumor necrosis factor-α (TNF-α) interleukin (IL)-1β, IL-6, IL-8, interferon-γ (IFN-γ) and prostaglandin E2 (PGE2) in these cells (Schwartz et al., 2009). Recombinant human MIF (rhMIF) will be purchased from R&D Systems (Minneapolis, Minn.) or generated in house. To induce the production of inflammatory mediators, MM6 cells will be plated at a final concentration of 5×10^5 cells/ml in RPMI 1640 medium containing 1% heat-inactivated low-pyrogen fetal bovine serum, 2 mM GlutaMAX-1,1% non-essential amino acids, 1% sodium pyruvate, 100 units/ml penicillin G and 100 μg/ml streptomycin (Gibco BRL Life Technologies). Cells will be stimulated with 100 ng/ml rhMIF with or without inhibitor for 20 h at 37° C. with 5% CO2. The supernatants were stored at −20° C. until they were assayed. The levels of inflammatory mediators will be determined using commercial ELISA kits from R&D Systems (Minneapolis, Minn.). Human Periperal Blood Mononuclear Cells (PBMC): Human whole blood is collected from healthy donors in sodium-heparinized tubes (BD Biosciences), and peripheral blood mononucleated cells (PBMC) are isolated by Ficoll separation. Cells are washed in Dulbecco's phosphate-buffered saline, resuspended in media (DMEM) containing 5% low endotoxin (<0.3 EU/ml) fetal Bovine Serum (FBS, GIBCO) and 10 units/ml penicillin/streptomycin, and plated at 5×10^5 cells/well in 96-well tissue culture plates. Lipopolysaccharide (LPS, E. coli Serotype 0111:B4, Sigma) or macrophage migration inhibitory factor are pre-incubated for 15 minutes with compounds dissolved in dimethyl sulfoxide (DMSO). The mixtures are then added to cells to yield final concentrations of 1% DMSO, 100 ng/ml LPS and 1 μg/ml MIF. Cells are incubated for overnight at 37° C., 5% CO2. TNF-α production is measured by ELISA (R&D Systems). Cytotoxicity is assessed using the MTT [3-(4,5-dimethylthiazol-2-yl)-2,5-diphenyl tetrazolium bromide assay. Human Rheumatoid Arthritis Synovial Fibroblast (RASF) Cell Line: RASF cells are derived from the inflamed synovium of a RA patient who was undergoing total knee replacement. Cells are cultured in Dulbecco's modified Eagle's medium with 15% FBS, 1% glutamine, and 1% penicillin/streptamycin (all from Gibco (Invitrogen), Gaithersburg, Md.). Experiments are performed with cells between passages 7 to 10, using trypsin with 0.25% ethylene diamine tetraacetic acid (EDTA)(Gibco) to detach cells. […] Interleukin 6 levels in culture supernatants are quantitated by ELISA. […]

[2] = biological target: T1, Native human MIF (Homo sapiens, UniProt P14174); assay: MIF tautomerase activity assay with hydroxyphenyl pyruvic acid (HPP) substrate; format: biochemical; conditions: absorbance at 300 nm
T1 sequence (P14174 2-115 limits assumed): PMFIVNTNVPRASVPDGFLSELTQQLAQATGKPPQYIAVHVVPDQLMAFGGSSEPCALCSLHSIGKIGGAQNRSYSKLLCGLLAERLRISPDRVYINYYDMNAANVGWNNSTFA
Protocol: The ability of candidate compounds to inhibit this tautomerase activity are quantitated by using hydroxyphenyl pyruvic acid (HPP) as a substrate (Ouertatani-Sakouhi et al., 2010). The ability of compounds to inhibit the tautomerase activity can be quantitated by following the increase in absorbance due to the enzymatic formation of the HPP enol-borate complex at 300 nm in the absence and presence of a test compound. The IC50 value of compounds are determined by plotting the initial velocities determined at 300 nm as a function of a test compound's concentration. Assays are carried out in a 96 or 384 well plate format. Representative MIF inhibitors were tested in the assay described above and the results tabulated in Table 1 wherein “A” represents≦10 μM; “B” represents>10 μM and <100 μM; “C” represents>100 μM and ≦200 μM; and “D” represents>200 μM.

[3] = system: rhMIF-stimulated PBMCs; assay: IL-6 production in rhMIF-stimulated PBMCs; format: cell-based; conditions: PBMC; human PBMCs, 25 μM compound preincubated 1 hour, rhMIF stimulation, 24 hours
Protocol: Effect of Candidate Compounds on Cytokine Production from Human Cells: Mono-Mac-6 Cells: The cellular efficacy of the inhibitors is determined using the human monocytic cell line, Mono-Mac-6 cells (MM6 cells) as it has been shown that MIF induces the production of inflammatory mediators, including tumor necrosis factor-α (TNF-α) interleukin (IL)-1β, IL-6, IL-8, interferon-γ (IFN-γ) and prostaglandin E2 (PGE2) in these cells (Schwartz et al., 2009). Recombinant human MIF (rhMIF) will be purchased from R&D Systems (Minneapolis, Minn.) or generated in house. To induce the production of inflammatory mediators, MM6 cells will be plated at a final concentration of 5×10^5 cells/ml in RPMI 1640 medium containing 1% heat-inactivated low-pyrogen fetal bovine serum, 2 mM GlutaMAX-1,1% non-essential amino acids, 1% sodium pyruvate, 100 units/ml penicillin G and 100 μg/ml streptomycin (Gibco BRL Life Technologies). Cells will be stimulated with 100 ng/ml rhMIF with or without inhibitor for 20 h at 37° C. with 5% CO2. The supernatants were stored at −20° C. until they were assayed. The levels of inflammatory mediators will be determined using commercial ELISA kits from R&D Systems (Minneapolis, Minn.). […] Cytotoxicity is assessed using the MTT [3-(4,5-dimethylthiazol-2-yl)-2,5-diphenyl tetrazolium bromide assay. […] Interleukin 6 levels in culture supernatants are quantitated by ELISA. […]

[4] = system: LPS-stimulated PBMCs; assay: TNF-α production in LPS-stimulated PBMCs; format: cell-based; conditions: PBMC; human PBMCs, 25 μM compound preincubated 1 hour, LPS stimulation, 24 hours
Protocol: Effect of Candidate Compounds on Cytokine Production from Human Cells: Mono-Mac-6 Cells: The cellular efficacy of the inhibitors is determined using the human monocytic cell line, Mono-Mac-6 cells (MM6 cells) as it has been shown that MIF induces the production of inflammatory mediators, including tumor necrosis factor-α (TNF-α) interleukin (IL)-1β, IL-6, IL-8, interferon-γ (IFN-γ) and prostaglandin E2 (PGE2) in these cells (Schwartz et al., 2009). Recombinant human MIF (rhMIF) will be purchased from R&D Systems (Minneapolis, Minn.) or generated in house. To induce the production of inflammatory mediators, MM6 cells will be plated at a final concentration of 5×10^5 cells/ml in RPMI 1640 medium containing 1% heat-inactivated low-pyrogen fetal bovine serum, 2 mM GlutaMAX-1,1% non-essential amino acids, 1% sodium pyruvate, 100 units/ml penicillin G and 100 μg/ml streptomycin (Gibco BRL Life Technologies). Cells will be stimulated with 100 ng/ml rhMIF with or without inhibitor for 20 h at 37° C. with 5% CO2. The supernatants were stored at −20° C. until they were assayed. The levels of inflammatory mediators will be determined using commercial ELISA kits from R&D Systems (Minneapolis, Minn.). Human Periperal Blood Mononuclear Cells (PBMC): Human whole blood is collected from healthy donors in sodium-heparinized tubes (BD Biosciences), and peripheral blood mononucleated cells (PBMC) are isolated by Ficoll separation. Cells are washed in Dulbecco's phosphate-buffered saline, resuspended in media (DMEM) containing 5% low endotoxin (<0.3 EU/ml) fetal Bovine Serum (FBS, GIBCO) and 10 units/ml penicillin/streptomycin, and plated at 5×10^5 cells/well in 96-well tissue culture plates. Lipopolysaccharide (LPS, E. coli Serotype 0111:B4, Sigma) or macrophage migration inhibitory factor are pre-incubated for 15 minutes with compounds dissolved in dimethyl sulfoxide (DMSO). The mixtures are then added to cells to yield final concentrations of 1% DMSO, 100 ng/ml LPS and 1 μg/ml MIF. Cells are incubated for overnight at 37° C., 5% CO2. TNF-α production is measured by ELISA (R&D Systems). Cytotoxicity is assessed using the MTT [3-(4,5-dimethylthiazol-2-yl)-2,5-diphenyl tetrazolium bromide assay. Human Rheumatoid Arthritis Synovial Fibroblast (RASF) Cell Line: RASF cells are derived from the inflamed synovium of a RA patient who was undergoing total knee replacement. Cells are cultured in Dulbecco's modified Eagle's medium with 15% FBS, 1% glutamine, and 1% penicillin/streptamycin (all from Gibco (Invitrogen), Gaithersburg, Md.). Experiments are performed with cells between passages 7 to 10, using trypsin with 0.25% ethylene diamine tetraacetic acid (EDTA)(Gibco) to detach cells. Interleukin 1 or macrophage migration inhibitory factor (MIF, GIBCO) are pre-incubated for 15 minutes with compounds dissolved in dimethyl sulfoxide (DMSO). The mixtures are then added to cells to yield final concentrations of 1% DMSO, 1 ng/ml Interleukin 1 or 1 μg/ml MIF. RASFs are incubated with or without stimuli at 37° C. for 20 h for induction of Interelukin 6. Interleukin 6 levels in culture supernatants are quantitated by ELISA. Representative MIF inhibitors were tested in the assay described above, specifically, human peripheral blood mononuclear cells [PBMCs] were isolated and stimulated with either LPS or rhMIF.

IC50 [2] | Compound | inhibition at 25 µM [1] | inhibition at 25 µM [3] | inhibition at 25 µM [4]
≤ 10 µM | N#Cc1c(NC2CN(C(=O)c3cccs3)C2)c2ccccc2n(Cc2ccc(F)cc2)c1=O [XXXVI] | > 70% |  | 
10 to 100 µM | N#Cc1c(NC2CN(C(=O)c3cncnc3)C2)c2ccccc2n(Cc2ccc(F)cc2)c1=O [XXXVII] |  |  | 
10 to 100 µM | Cn1c(=O)c(C#N)c(NC2CN(S(C)(=O)=O)C2)c2ccccc21 [Compound XXVI, 1-methyl-4-(1-(methylsulfonyl)azetidin-3-ylamino)-2-oxo-1,2-dihydroquinoline-3-carbonitrile] |  |  | 
≤ 10 µM | Cn1c(=O)c(C#N)c(NC2CN(C(=O)c3cccs3)C2)c2ccccc21 [XXIV, 1-methyl-2-oxo-4-(1-(thiophene-2-carbonyl)azetidin-3-ylamino)-1,2-dihydroquinoline-3-carbonitrile] | > 70% | 10 to 50% | 50 to 70%
> 200 µM | Cn1c(=O)c(C#N)c(N2CCC(C(=O)O)CC2)c2ccccc21 [Compound X, 1-(3-cyano-1-methyl-2-oxo-1,2-dihydroquinolin-4-yl)piperidine-4-carboxylic acid] |  |  | 
≤ 10 µM | Cn1c(=O)c(C#N)c(NC2CCN(C(=O)c3cccs3)CC2)c2ccccc21 [XVII-1, 1-methyl-2-oxo-4-{[1-(thiophen-2-ylcarbonyl)piperidin-4-yl]amino}-1,2-dihydroquinoline-3-carbonitrile] |  |  | 50 to 70%
> 200 µM | N#Cc1c(NC2CN(S(=O)(=O)c3cccs3)C2)c2ccccc2n(Cc2ccc(F)cc2)c1=O [XXXIV, 1-(4-fluorobenzyl)-2-oxo-4-(1-(thiophen-2-ylsulfonyl)azetidin-3-ylamino)-1,2-dihydroquinoline-3-carbonitrile] |  |  | 
> 200 µM | Cn1c(=O)c(C#N)c(N2CCC(C(=O)NCCO)CC2)c2ccccc21 [XIII] |  |  | 
100 to 200 µM | N#Cc1c(N2CCC(C(=O)c3cccs3)CC2)c2ccccc2n(Cc2ccc(F)cc2)c1=O [Compound XXVIII, 1-(4-fluorobenzyl)-2-oxo-4-[4-(thiophen-2-ylcarbonyl)piperidin-1-yl]-1,2-dihydroquinoline-3-carbonitrile] |  |  | 10 to 50%
≤ 10 µM | Cn1c(=O)c(C#N)c(N2CCC(NC(=O)c3cccs3)CC2)c2ccccc21 [Compound VIII, N-[1-(3-cyano-1-methyl-2-oxo-1,2-dihydroquinolin-4-yl)piperidin-4-yl]thiophene-2-carboxamide] |  |  | 10 to 50%
> 200 µM | Cn1c(=O)c(C#N)c(N2CCC(C(=O)NCc3ccncc3)CC2)c2ccccc21 [Compound XI, 1-(3-cyano-1-methyl-2-oxo-1,2-dihydroquinolin-4-yl)N-(pyridin-4-ylmethyl)piperidine-4-carboxamide] |  |  | 
≤ 10 µM | N#Cc1c(NC2CCN(C(=O)c3cccs3)CC2)c2ccccc2n(Cc2ccc(F)cc2)c1=O [XXXIII] |  |  | 50 to 70%
> 200 µM | CN(C)C(=O)C1CCN(c2c(C#N)c(=O)n(C)c3ccccc23)CC1 [XII] |  |  | 
> 200 µM | Cn1c(=O)c(C#N)c(NC2CCN(S(C)(=O)=O)CC2)c2ccccc21 [Compound XXV] |  |  | 
≤ 10 µM | Cn1c(=O)c(C#N)c(N2CCC(C(=O)Nc3nccs3)CC2)c2ccccc21 [XIV] |  |  | 
100 to 200 µM | N#Cc1c(N2CC(C(=O)c3cccs3)C2)c2ccccc2n(Cc2ccc(F)cc2)c1=O [XXXVIII] |  |  | 
≤ 10 µM | N#Cc1c(NC2CN(C(=O)c3ccncc3)C2)c2ccccc2n(Cc2ccc(F)cc2)c1=O [XXXV] | 10 to 50% |  | 
≤ 10 µM | Cn1c(=O)c(C#N)c(N2CCC(C(=O)Nc3ccn[nH]3)CC2)c2ccccc21 [Compound XV] |  |  | 
10 to 100 µM | Cn1c(=O)c(C#N)c(N2CC(C(=O)c3cccs3)C2)c2ccccc21 [Compound V] |  |  | > 70%
≤ 10 µM | Cn1c(=O)c(C#N)c(N2CC(C(=O)NCc3ccncc3)C2)c2ccccc21 [Compound XIX, 1-(3-cyano-1-methyl-2-oxo-1,2-dihydroquinolin-4-yl)-N-(pyridin-4-ylmethyl)azetidine-3-carboxamide] |  |  | 

Compound | IC50 [2] | inhibition at 25 µM [1] | inhibition at 25 µM [3] | inhibition at 25 µM [4]
Cn1c(=O)c(C#N)c(N2CC(NC(=O)c3cccs3)C2)c2ccccc21 [Compound XXI, N-[1-(3-cyano-1-methyl-2-oxo-1,2-dihydroquinolin-4-yl)azetidin-3-yl]thiophene-2-carboxamide] | 10 to 100 µM | 10 to 50% | 10 to 50% | ≤ 10%
Cn1c(=O)c(C#N)c(N2CCC(C(=O)c3cccs3)CC2)c2ccccc21 [Compound IV, 1-methyl-2-oxo-4-[4-(thiophen-2-ylcarbonyl)piperidin-1-yl]-1,2-dihydroquinoline-3-carbonitrile] | 100 to 200 µM |  |  | 10 to 50%
